Reference: US11306063B2, “Heterocyclic naphthoquinones derivatives for use in the treatment of cancers including Cushing disease” (Commissariat a l'Energie Atomique et aux Energies …, priority 2016, dated 2022)

Key:
[1] = tested on: HCT116 cells; assay: Cytotoxicity assay (PrestoBlue cell viability), HCT116; type: cell-based; conditions: Homo sapiens, HCT-116; 48 hours treatment
Description: Messa, Messa DX5, HCT116, HEK-293, PC-3, LNCaP, HCC827 and H1975 cell lines are issued from the American Type Culture Collection (ATCC).
Messa, Messa DX5 and HCT116 were maintained in McCoy's supplemented with 10% fetal bovine serum, and 1% penicillin/streptomycin. PC-3, LNCaP cells were maintained in RPMI medium supplemented with 10% fetal bovine serum, and 1% penicilin/streptomycin and in the case of Messa DX5: 500 nM Doxorubicin was added to maintain selection pressure. HEK293 were maintained in DMEM medium supplemented with 10% fetal bovine serum, and 1% penicillin/streptomycin. Cells were maintained at 37° C. with 5% CO2, 95% air, and humid atmosphere. In the case of hormonal dependent LNCaP cells, 2 μM DiHydroTestosterone (DHT) was added or not—depending on the type of biological assay—for the same incubation period as compounds.
(§1) For cytotoxicity assays, cells were seeded in 96-well microplates 24 hours before the addition of increasing concentrations of each compound in the culture medium. Cell viability was analyzed 48 hours following addition of each compound through the monitoring of mitochondrial […] activity using PrestoBlue® Cell Viability Reagent (Invitrogen; #A-13261). Paclitaxel was used as a control which is cytotoxic on various cancerous cells although not on chemoresistant MESSA DX5 lineage.

[2] = tested on: all cancerous cells tested; assay: Cytotoxicity assay, summary over all cancerous cells tested; type: cell-based; conditions: Homo sapiens; 48 h treatment; read-out: EC50 of cell death, range over all cancerous cells tested
Description: as §1

[3] = tested on: HCC827 cells; assay: Cell growth inhibition and cell death induction (Incucyte), HCC827; type: cell-based, human; conditions: 72 hours, FIG. 12A,B
From the text: FIG. 12: The cell growth inhibition and cell death induction of non-small cell lung cancers (NSCLC), HCC827 cells and derivative Gefitinib-resistant clone H1975 (FIG. 12 A,B) and of PC-3 (FIG. 12 C,D) and LnCAP (FIG. 12 E,F) were monitored using Incucyte microscope. Histogram represent in A,C,E: the final cell area relative to the total well area in (%) and in B,D,F: the fluorescent area in μm2. Error bars indicate standard deviation between 6 technical replicates.
The cell growth inhibition and cell death induction of non-small cell lung cancers (NSCLC), HCC827 cells and derivative Gefitinib-resistant clone H1975 were monitored during a period of 72 hours using Incucyte microscope and dedicated programs allowing to monitor cell confluency (i.e.: cell surface area relative to total well surface) and cell death induction by adding Propidium Iodide (PI) at 1 μg/ml (Sigma Aldrich #P4864) in the culture medium.

[4] = tested on: LNCaP cells spheroids; assay: Cell death in 3D spheroids (PI/Hoechst, high content analysis); type: cell-based, human; conditions: 1 to 3 days, increasing concentration, FIG. 2C
Description: Spheroids were then stained with Hoechst and Propidium Iodure (PI). The area of each staining was calculated via automated imaging. Histograms represent the medium value of the PI/Hoechst areas ratio calculated on 3 to 6 independent spheroids. Error bars indicate the standard deviation between technical replicates. One out of three experiments is presented.
For 3D cell culture (spheroids), the LNCaP-FGC (fast growing colony) cell line (ATCC #CRL1740) was used. This cell line derives from the LNCaP cell line (Human Prostatic Carcinoma) which shares all the main characteristics, including its androgen sensitivity, described for the parental line and HCT116 (ATCC #CCL 247) (Human Colorectal Carcinoma) cell lines. […]
An automated imaging protocol was designed to monitor the induction of cell death in the spheroids by high content analysis methods (HCA). 3 hours before reading, cells were labeled with vital Hoechst (400 ng/ml) (Thermo Fischer Scientific #33342) and Propidium Iodide (PI) at 1 μg/ml (Sigma Aldrich #P4864) as markers of cell nuclei and cell death respectively. Images of PI and Hoechst fluorescence were acquired using the automated microscope ArrayScan^VTI (ThermoScientific) and 5 times magnification. […]

[5] = Metabolic stability on human liver microsomes; type: in vitro ADME; conditions: 0.5 μM, up to 30 min; for cofactors (CYP)-mediated metabolism, human: with cofactors; for metabolism in the absence of cofactors, human: without cofactors
Description: (§2) Each compound was incubated either with cofactors (n=2) or without cofactors (n=1). Positive controls were: Diclofenac, Midazolam and Amitriptyline.

[6] = Metabolic stability on mouse liver microsomes; type: in vitro ADME; conditions: 0.5 μM, up to 30 min; for cofactors (CYP)-mediated metabolism, mouse: with cofactors; for metabolism in the absence of cofactors, mouse: without cofactors
Description: as §2

SMILES	EC50 [1]	EC50 [2]	cell growth inhibition and cell death induction, HCC827 [3]	cell death in spheroids (PI area over Hoechst area) [4]	cofactors (CYP)-mediated metabolism, human [5]	metabolism in the absence of cofactors, human [5]	cofactors (CYP)-mediated metabolism, mouse [6]	metabolism in the absence of cofactors, mouse [6]
CCCCS(=O)(=O)Cc1nc2c(nc1CS(=O)(=O)CCCC)C(=O)c1ccccc1C2=O [PCR6236]	1300 nM	1000 to 3500 nM	inhibit cell growth and induce cell death in a dose dependent manner	significant induction of a tumorous cells death	low	No metabolism was observed	high	No metabolism was observed
CCCCS(=O)(=O)Cc1nc2c(o1)C(=O)c1ccccc1C2=O [PCR9301]	1700 nM	1000 to 3500 nM	inhibit cell growth and induce cell death in a dose dependent manner	to an ever higher extend	not or poorly metabolized	No metabolism was observed	not or poorly metabolized	No metabolism was observed
